According to patent publication US20020026053A1, “Novel 3-(substituted) -2- indolinones compounds and use thereof as inhibitors of protein kinase activity” (priority 1997, published 2002):

Each compound was assayed on FLK-1 receptor (assay: FLK-1 Assay (cellular/catalytic ELISA, VEGF-stimulated phosphotyrosine)).
Format: cell-based
Parameters: concentration or dose not given beside the values
Protocol: The cellular/catalytic assays described herein are performed in an ELISA format. The general procedure is as follows: a compound is introduced to cells expressing the test kinase, either naturally or recombinantly, for a selected period of time after which, if the test kinase is a receptor, a ligand known to activate the receptor is added. The cells are lysed and the lysate is transferred to the wells of an ELISA plate previously coated with a specific antibody recognizing the substrate of the enzymatic phosphorylation reaction. Non-substrate components of the cell lysate are washed away and the amount of phosphorylation on the substrate is detected with an antibody specifically recognizing phosphotyrosine compared with control cells that were not contacted with a test compound.
An ELISA assay is conducted to measure the kinase activity of the FLK-1 receptor and more specifically, the inhibition or activation of TK activity on the FLK-1 receptor. Specifically, the following assay can be conducted to measure kinase activity of the FLK-1 receptor in cells genetically engineered to express Flk-1.
a. Corning 96-well ELISA plates (Corning Catalog No. 25805-96);
b. Cappel goat anti-rabbit IgG (catalog no. 55641);
c. PBS (Gibco Catalog No. 450-1300EB);
d. TBSW Buffer (50 mM Tris (pH 7.2), 150 mM NaCl and 0.1% Tween-20);
e. Ethanolamine stock (10% ethanolamine (pH 7.0), stored at 4° C.);
f. HNTG buffer (20 mM HEPES buffer (pH 7.5), 150 mM NaCl, 0.2% Triton X-100, and 10% glycerol);
g. EDTA (0.5 M (pH 7.0) as a 100× stock);
h. Sodium orthovanadate (0.5 M as a 100× stock);
i. Sodium pyrophosphate (0.2 M as a 100× stock);
j. NUNC 96 well V bottom polypropylene plates (Applied Scientific Catalog No. AS-72092);
k. NIH3T3 C7#3 Cells (FLK-1 expressing cells);
l. DMEM with 1× high glucose L-Glutamine (catalog No. 11965-050);
n. L-glutamine, Gibco (catalog no. 25030-016);
o. VEGF, PeproTech, Inc. (catalog no. 100-20)(kept as 1 μg/100 μl stock in Milli-Q dH2O and stored at −20° C.;
p. Affinity purified anti-FLK-1 antiserum;
q. UB40 monoclonal antibody specific for phosphotyrosine (see, Fendley, et al., 1990, Cancer Research 50:1550-1558);
r. EIA grade Goat anti-mouse IgG-POD (BioRad catalog no. 172-1011);
s. 2,2-azino-bis(3-ethylbenz-thiazoline-6-sulfonic acid (ABTS) solution (100 mM citric acid (anhydrous), 250 mM Na2HPO4 (pH 4.0), 0.5 mg/ml ABTS (Sigma catalog no. A-1888)), solution should be stored in dark at 4° C. until ready for use;
t. H2O2 (30% solution) (Fisher catalog no. H325);
u. ABTS/ H2O2 (15 ml ABTS solution, 2 μl H2O2) prepared 5 minutes before use and left at room temperature;
v. 0.2 M HCl stock in H2O;
w. dimethylsulfoxide (100%) (Sigma Catalog No. D-8418); and
y. Trypsin-EDTA (Gibco BRL Catalog No. 25200-049).
1. Coat Corning 96-well ELISA plates with 1.0 μg per well Cappel Anti-rabbit IgG antibody in 0.1M Na2CO3 pH 9.6. Bring final volume to 150 μl per well. Coat plates overnight at 4° C. Plates can be kept up to two weeks when stored at 4° C.
2. Grow cells in Growth media (DMEM, supplemented with 2.0 mM L-Glutamine, 10% FBS) in suitable culture dishes until confluent at 37° C., 5% CO2.
3. Harvest cells by trypsinization and seed in Corning 25850 polystyrene 96-well round bottom cell plates, 25,000 cells/well in 200 μl of growth media.
4. Grow cells at least one day at 37° C., 5% CO2.
5. Wash cells with D-PBS 1×.
6. Add 200 μl/well of starvation media (DMEM, 2.0 mM 1-Glutamine, 0.1% FBS). Incubate overnight at 37° C., 5% CO2.
7. Dilute Compounds 1:20 in polypropylene 96 well plates using starvation media. Dilute dimethylsulfoxide 1:20 for use in control wells.
8. Remove starvation media from 96 well cell culture plates and add 162 μl of fresh starvation media to each well.
9. Add 18 μl of 1:20 diluted compound dilution (from step 7) to each well plus the 1:20 dimethylsulfoxide dilution to the control wells (+/− VEGF), for a final dilution of 1:200 after cell stimulation. Final dimethylsulfoxide is 0.5%. Incubate the plate at 37° C., 5% CO2 for two hours.
10. […]

Row | Compound | Flk Kinase % Inhibition (P.110) [%]
1 | Cc1c(Br)cc(Br)c2c1C(=Cc1ccc(OCc3ccccc3)c(C(C)(C)C)c1)C(=O)N2 [10732/H06] | 22.6
2 | Cc1c(Br)cc(Br)c2c1C(=Cc1ccc(Br)cc1)C(=O)N2 [10717/H08] | −8.4
3 | Cc1c(Br)cc(Br)c2c1C(=Cc1ccc[nH]1)C(=O)N2 [10717/H09] | −17.5
4 | Cc1c(Br)cc(Br)c2c1C(=C1C(=O)N(C)c3ccccc31)C(=O)N2 [10731/H10] | 25.9
5 | Cc1c(Br)cc(Br)c2c1C(=Cc1cccnc1)C(=O)N2 [10729/H08] | 8.2
6 | COc1c(Br)cc(C=C2C(=O)Nc3c(Br)cc(Br)c(C)c32)cc1C(C)(C)C [10732/H07] | 9.7
7 | Cc1cc(C=C2C(=O)Nc3c(Br)cc(Br)c(C)c32)cc(C)c1OCc1ccccc1 [10733/H07] | 7.6
8 | Cc1cn(C)cc1C=C1C(=O)Nc2c(Br)cc(Br)c(C)c21 [10726/H06] | 17.5
9 | Cc1c(Br)cc(Br)c2c1C(=CC(c1cccs1)C(F)(F)F)C(=O)N2 (centres unmarked) [10732/H02] | 9.1
10 | Cc1c(Br)cc(Br)c2c1C(=Cc1ccc(-c3ccccc3Cl)o1)C(=O)N2 [10730/H07] | 19.0
11 | Cc1cc2occ(C=C3C(=O)Nc4c(Br)cc(Br)c(C)c43)c(=O)c2cc1C [10731/H03] | 20.0
12 | COc1c(C(C)C)cc(C=C2C(=O)Nc3c(Br)cc(Br)c(C)c32)cc1C(C)C [10732/H03] | 8.4
13 | Cc1c(Br)cc(Br)c2c1C(=Cc1coc3ccc(C(C)C)cc3c1=O)C(=O)N2 [10731/H05] | 23.6
14 | Cc1[nH]c(C=C2C(=O)Nc3c(Br)cc(Br)c(C)c32)c(Br)c1Br [10717/H11] | −0.4
15 | Cc1c(Br)cc(Br)c2c1C(=Cc1coc3ccccc3c1=O)C(=O)N2 [10727/H07] | −9.7
16 | Cc1c(Br)cc(Br)c2c1C(=Cc1cccc(C(F)(F)F)c1F)C(=O)N2 [10728/H07] | 1.5
17 | COc1ccc2ccccc2c1C=C1C(=O)Nc2c(Br)cc(Br)c(C)c21 [10729/H02] | 14.3
18 | CSc1ccc(C=C2C(=O)Nc3c(Br)cc(Br)c(C)c32)cc1 [10729/H04] | 1.1
19 | CC(=O)n1cc(C=C2C(=O)Nc3c(Br)cc(Br)c(C)c32)c2ccccc21 [10730/H05] | 11.7
20 | Cc1c(Br)cc(Br)c2c1C(=Cc1ccncc1)C(=O)N2 [10729/H09] | −2.7
21 | COc1cccc(O)c1C=C1C(=O)Nc2c(Br)cc(Br)c(C)c21 [10717/H10] | −5.0
22 | Cc1c(Br)cc(Br)c2c1C(=Cc1cc([N+](=O)[O-])ccc1O)C(=O)N2 [10733/H10] | 12.6
23 | Cc1ccsc1C=C1C(=O)Nc2c(Br)cc(Br)c(C)c21 [10729/H05] | 22.4
24 | Cc1c(Br)cc(Br)c2c1C(=Cc1cc(C(C)C)c(Oc3ccccc3)c(C(C)C)c1)C(=O)N2 [10732/H04] | 4.9
25 | Cc1c(Br)cc(Br)c2c1C(=Cc1cc(Cl)c(OCc3ccccc3)c(C(C)(C)C)c1)C(=O)N2 [10732/H10] | 3.3
26 | Cc1c(Br)cc(Br)c2c1C(=Cc1ccc(C#N)cc1)C(=O)N2 [10727/H09] | −1.4
